Tests used:
[1] = Compound selectivity was assessed using vacuolar type proton ATPase from human kidney cortex(hK)
[2] = Compound selectivity was assessed using vacuolar type proton ATPase from human kidney cortex (hK)
Homo sapiens [3] = species on record: Homo sapiens; experiment: Ability to inhibit bone resorption in human osteoclast obtained from giant cell tumors of bone; assay type: functional
Homo sapiens [4] = species on record: Homo sapiens; experiment: In vitro human osteoclast activity for bone resorption was assessed by ELISA assay; assay type: functional
[5] = Compound selectivity was assessed using vacuolar type proton ATPase from chicken adrenal glands (cAG); assay type: tissue-based, Adrenal gland

| IC50 [1] [nM] | IC50 [2] [nM] | IC50 (Homo sapiens [3]) [nM] | IC50 (Homo sapiens [4]) [nM] | IC50 [5] [nM] | Structure (SMILES) |
| --- | --- | --- | --- | --- | --- |
| 6330 | – | – | – | – | CO/C(=C/C=C/c1cc2cc(Cl)c(Cl)cc2[nH]1)C(=O)NC1CC(C)(C)N(C)C(C)(C)C1 |
| – | 2500 | – | – | – | CO/C(=C\C=C/c1cc2cc(Cl)c(Cl)cc2[nH]1)C(=O)NC1CC(C)(C)N(C)C(C)(C)C1 |
| – | 158 | 13.5 | 3.4 | 125 | CO/C(=C\C=C\c1cc2cc(Cl)c(Cl)cc2[nH]1)C(=O)NC1CC(C)(C)N(C)C(C)(C)C1 |
